{
  "source": "paper PMC7561186",
  "about": "“Rational design of balanced dual-targeting antibiotics with limited resistance” (PLoS Biology, 2020)",
  "key": {"[1]": {"test_system": "multidrug-resistant Staphylococcus, Enterococcus, and Streptococcus isolates", "assay": "MIC against multidrug-resistant gram-positive isolates (summary)", "assay_type": "cell-based", "settings": "read-out: MIC values against all studied multidrug-resistant Staphylococcus, Enterococcus, and Streptococcus isolates", "description": "MICs were determined using a standard serial broth microdilution technique according to the CLSI guidelines. Briefly, bacterial strains were inoculated onto MHBII agar plates and were grown overnight at 37 °C. Next, 3 individual colonies from each strain were inoculated into 1 mL MHBII medium and propagated at 37 °C, 250 rpm overnight. In the cases of Enterococcus and Streptococcus sp., cells were plated to BHI agar plates, and BHI broth was used to determine MICs. […] Following dilutions, each well was seeded with 5×10^4 bacterial cells. All measurements were performed in 3 parallel replicates and to avoid possible edge effects in microwell plates, side rows (A and H) were filled with sterile medium. Following inoculations, plates were covered with lids and wrapped in polyethylene plastic bags to minimize evaporation but allow for O2 transfer. Plates were incubated at 37 °C under continuous shaking at 150 rpm for 18 hours. After incubation, OD600 of each well was measured using a BioTek Synergy 2 microplate reader."}, "[2]": {"test_system": "S. aureus clinical isolates", "assay": "microbe, parasite or virus in culture", "assay_type": "cell-based"}},
  "note": "Where two headings read alike, the source gives them in different places.",
  "data": [
    {"smiles": "Cc1[nH]c(C(=O)Nc2nc3ccc(C(=O)O)cc3s2)c(Cl)c1Cl", "note": "[ULD1]", "values": [
      {"measurement": "MIC", "setting": "[1]", "result": "< 2", "unit": "µg/mL"},
      {"measurement": "MIC", "setting": "[2]; S. aureus ATCC 29213, MSSA / VSSA, test date 2018-10-25 (three repeat lines)", "result": 1, "unit": "µg/mL"},
      {"measurement": "MIC", "setting": "[2]; Staphylococcus aureus, ATCC 29213 / MSSA, S. aureus ATCC 29213, MSSA / VSSA, test date 2018-10-25 (three repeat lines), read-out: MIC", "result": 0.5, "unit": "µg/mL"},
      {"measurement": "MIC", "setting": "[2]; Staphylococcus aureus, ATCC 29213 / MSSA, S. aureus ATCC 29213, MSSA / VSSA, test date 2018-11-07, read-out: MIC", "result": 0.25, "unit": "µg/mL"},
      {"measurement": "MIC", "setting": "[2]; Staphylococcus aureus, MRSA / NRS 3 / VISA, S. aureus IHMA 1308243, NRS3, MRSA / VISA, read-out: MIC", "result": 1, "unit": "µg/mL"},
      {"measurement": "MIC", "setting": "[2]; Staphylococcus aureus, MRSA / NRS 4 / VISA, S. aureus IHMA 649380, NRS4, MRSA / VISA, read-out: MIC", "result": 0.5, "unit": "µg/mL"},
      {"measurement": "MIC", "setting": "[2]; Staphylococcus aureus, MRSA / NRS 18 / VISA, S. aureus IHMA 649386, NRS18, MRSA / VISA, read-out: MIC", "result": 0.5, "unit": "µg/mL"},
      {"measurement": "MIC", "setting": "[2]; Staphylococcus aureus, MRSA / NRS 19 / VISA, S. aureus IHMA 649387, NRS19, MRSA / VISA, read-out: MIC", "result": 0.5, "unit": "µg/mL"},
      {"measurement": "MIC", "setting": "[2]; Staphylococcus aureus, MRSA / NRS 21 / VISA, S. aureus IHMA 649388, NRS21, MRSA / VISA, read-out: MIC", "result": 1, "unit": "µg/mL"},
      {"measurement": "MIC", "setting": "[2]; Staphylococcus aureus, MRSA / NRS 22 / USA600 / VISA, S. aureus IHMA 649389, NRS22, MRSA / VISA, USA600, read-out: MIC", "result": 0.5, "unit": "µg/mL"},
      {"measurement": "MIC", "setting": "[2]; Staphylococcus aureus, MRSA / NRS 23 / VISA, S. aureus IHMA 649390, NRS23, MRSA / VISA, read-out: MIC", "result": 0.5, "unit": "µg/mL"},
      {"measurement": "MIC", "setting": "[2]; Staphylococcus aureus, MRSA / NRS 24 / VISA, S. aureus IHMA 649391, NRS24, MRSA / VISA, read-out: MIC", "result": 0.5, "unit": "µg/mL"},
      {"measurement": "MIC", "setting": "[2]; Staphylococcus aureus, MRSA / NRS 26, S. aureus IHMA 649392, NRS26, MRSA / VSSA, read-out: MIC", "result": 0.5, "unit": "µg/mL"},
      {"measurement": "MIC", "setting": "[2]; Staphylococcus aureus, MRSA / NRS 27 / VISA, S. aureus IHMA 1308248, NRS27, MRSA / VISA, read-out: MIC", "result": 1, "unit": "µg/mL"},
      {"measurement": "MIC", "setting": "[2]; Staphylococcus aureus, MRSA / NRS 29 / VISA, S. aureus IHMA 1308250, NRS29, MRSA / VISA, read-out: MIC", "result": 0.5, "unit": "µg/mL"},
      {"measurement": "MIC", "setting": "[2]; Staphylococcus aureus, MRSA / NRS 37 / VISA, S. aureus IHMA 1308251, NRS37, MRSA / VISA, read-out: MIC", "result": 0.5, "unit": "µg/mL"},
      {"measurement": "MIC", "setting": "[2]; Staphylococcus aureus, MRSA / NRS 54, S. aureus IHMA 1308253, NRS54, MRSA / VSSA* (*Expected VAN intermediate, confirmed VAN susceptible twice), test date 2018-11-07, read-out: MIC", "result": 0.25, "unit": "µg/mL"},
      {"measurement": "MIC", "setting": "[2]; Staphylococcus aureus, MRSA / NRS 56 / VISA, S. aureus IHMA 1308254, NRS56, MRSA / VISA, read-out: MIC", "result": 0.5, "unit": "µg/mL"},
      {"measurement": "MIC", "setting": "[2]; Staphylococcus aureus, MRSA / USA100 / VRSA, S. aureus IHMA 672230, VRS1, MRSA / VRSA, USA100, read-out: MIC", "result": 0.5, "unit": "µg/mL"},
      {"measurement": "MIC", "setting": "[2]; Staphylococcus aureus, MRSA / USA100 / VRSA, S. aureus IHMA 672231, VRS2, MRSA / VRSA, USA100, read-out: MIC", "result": 0.5, "unit": "µg/mL"},
      {"measurement": "MIC", "setting": "[2]; Staphylococcus aureus, MRSA / USA100 / VRSA, S. aureus IHMA 672234, VRS4, MRSA / VRSA, USA100, read-out: MIC", "result": 0.5, "unit": "µg/mL"},
      {"measurement": "MIC", "setting": "[2]; Staphylococcus aureus, MRSA / USA100 / VRSA, S. aureus IHMA 672235, VRS5, MRSA / VRSA, USA100, read-out: MIC", "result": 1, "unit": "µg/mL"},
      {"measurement": "MIC", "setting": "[2]; Staphylococcus aureus, MRSA / USA100 / VRSA, S. aureus IHMA 672237, VRS7, MRSA / VRSA, USA100, read-out: MIC", "result": 0.5, "unit": "µg/mL"},
      {"measurement": "MIC", "setting": "[2]; Staphylococcus aureus, MRSA / USA100 / VRSA, S. aureus IHMA 672238, VRS8, MRSA / VRSA, USA100, read-out: MIC", "result": 0.5, "unit": "µg/mL"},
      {"measurement": "MIC", "setting": "[2]; Staphylococcus aureus, MRSA / USA100 / VRSA, S. aureus IHMA 672239, VRS9, MRSA / VRSA, USA100, read-out: MIC", "result": 0.5, "unit": "µg/mL"},
      {"measurement": "MIC", "setting": "[2]; Staphylococcus aureus, MRSA / USA100 / VRSA, S. aureus IHMA 1308256, VRS10, MRSA / VRSA, USA100, read-out: MIC", "result": 1, "unit": "µg/mL"},
      {"measurement": "MIC", "setting": "[2]; Staphylococcus aureus, MRSA / USA100 / VRSA, S. aureus IHMA 1308258, VRS11b, MRSA / VRSA, USA100, read-out: MIC", "result": 0.5, "unit": "µg/mL"},
      {"measurement": "MIC", "setting": "[2]; Staphylococcus aureus, MRSA / USA800 / VRSA, S. aureus IHMA 672233, VRS3b, MRSA / VRSA, USA800, read-out: MIC", "result": 0.25, "unit": "µg/mL"},
      {"measurement": "MIC", "setting": "[2]; Staphylococcus aureus, MRSA / VISA / VRSA, all isolates of the panel (MRSA, VISA, VRSA), read-out: MIC against all tested S. aureus clinical isolates", "result": "≤ 1", "unit": "µg/mL"},
      {"measurement": "MIC", "setting": "[2]; Staphylococcus aureus, MRSA, S. aureus IHMA 1569509, MRSA / VSSA, read-out: MIC", "result": 0.25, "unit": "µg/mL"},
      {"measurement": "MIC", "setting": "[2]; Staphylococcus aureus, MRSA, S. aureus IHMA 1575268, MRSA / VSSA, read-out: MIC", "result": 1, "unit": "µg/mL"},
      {"measurement": "MIC", "setting": "[2]; Staphylococcus aureus, MRSA, S. aureus IHMA 1575629, MRSA / VSSA, read-out: MIC", "result": 0.5, "unit": "µg/mL"},
      {"measurement": "MIC", "setting": "[2]; Staphylococcus aureus, MRSA, S. aureus IHMA 1577820, MRSA / VSSA, read-out: MIC", "result": 1, "unit": "µg/mL"},
      {"measurement": "MIC", "setting": "[2]; Staphylococcus aureus, MRSA, S. aureus IHMA 1580300, MRSA / VSSA, read-out: MIC", "result": 0.5, "unit": "µg/mL"},
      {"measurement": "MIC", "setting": "[2]; Staphylococcus aureus, MRSA, S. aureus IHMA 1580940, MRSA / VSSA, read-out: MIC", "result": 0.5, "unit": "µg/mL"},
      {"measurement": "MIC", "setting": "[2]; Staphylococcus aureus, MRSA, S. aureus IHMA 1582100, MRSA / VSSA, read-out: MIC", "result": 0.5, "unit": "µg/mL"},
      {"measurement": "MIC", "setting": "[2]; Staphylococcus aureus, MRSA, S. aureus IHMA 1583795, MRSA / VSSA, read-out: MIC", "result": 1, "unit": "µg/mL"},
      {"measurement": "MIC", "setting": "[2]; Staphylococcus aureus, MRSA, S. aureus IHMA 1584223, MRSA / VSSA, read-out: MIC", "result": 1, "unit": "µg/mL"},
      {"measurement": "MIC", "setting": "[2]; Staphylococcus aureus, MRSA, S. aureus IHMA 1585316, MRSA / VSSA, read-out: MIC", "result": 0.25, "unit": "µg/mL"},
      {"measurement": "MIC", "setting": "[2]; Staphylococcus aureus, MRSA, S. aureus IHMA 1586780, MRSA / VSSA, read-out: MIC", "result": 0.5, "unit": "µg/mL"},
      {"measurement": "MIC", "setting": "[2]; Staphylococcus aureus, MRSA, S. aureus IHMA 1587322, MRSA / VSSA, read-out: MIC", "result": 0.5, "unit": "µg/mL"},
      {"measurement": "MIC", "setting": "[2]; Staphylococcus aureus, MRSA, S. aureus IHMA 1588127, MRSA / VSSA, read-out: MIC", "result": 0.5, "unit": "µg/mL"},
      {"measurement": "MIC", "setting": "[2]; Staphylococcus aureus, MRSA, S. aureus IHMA 1591462, MRSA / VSSA, read-out: MIC", "result": 0.25, "unit": "µg/mL"},
      {"measurement": "MIC", "setting": "[2]; Staphylococcus aureus, MRSA, S. aureus IHMA 1592755, MRSA / VSSA, read-out: MIC", "result": 0.5, "unit": "µg/mL"},
      {"measurement": "MIC", "setting": "[2]; Staphylococcus aureus, MRSA, S. aureus IHMA 1592776, MRSA / VSSA, read-out: MIC", "result": 0.5, "unit": "µg/mL"},
      {"measurement": "MIC", "setting": "[2]; Staphylococcus aureus, MRSA, S. aureus IHMA 1597106, MRSA / VSSA, read-out: MIC", "result": 1, "unit": "µg/mL"},
      {"measurement": "MIC", "setting": "[2]; Staphylococcus aureus, MRSA, S. aureus IHMA 1602095, MRSA / VSSA, read-out: MIC", "result": 0.5, "unit": "µg/mL"},
      {"measurement": "MIC", "setting": "[2]; Staphylococcus aureus, MRSA, S. aureus IHMA 1611170, MRSA / VSSA, read-out: MIC", "result": 0.5, "unit": "µg/mL"},
      {"measurement": "MIC", "setting": "[2]; Staphylococcus aureus, MRSA, S. aureus IHMA 1611612, MRSA / VSSA, read-out: MIC", "result": 0.5, "unit": "µg/mL"},
      {"measurement": "MIC", "setting": "[2]; Staphylococcus aureus, MRSA, S. aureus IHMA 1612228, MRSA / VSSA, read-out: MIC", "result": 0.5, "unit": "µg/mL"},
      {"measurement": "MIC", "setting": "[2]; Staphylococcus aureus, MRSA, S. aureus IHMA 1620441, MRSA / VSSA, read-out: MIC", "result": 0.5, "unit": "µg/mL"},
      {"measurement": "MIC", "setting": "[2]; Staphylococcus aureus, MRSA, S. aureus IHMA 1621638, MRSA / VSSA, read-out: MIC", "result": 1, "unit": "µg/mL"},
      {"measurement": "MIC", "setting": "[2]; Staphylococcus aureus, MRSA, S. aureus IHMA 1622252, MRSA / VSSA, read-out: MIC", "result": 1, "unit": "µg/mL"}
    ]}
  ]
}
